The record followed here is patent publication US8916565B2, “Pyrrolopyrazine-spirocyclic piperidine amides as modulators of ion channels” (priority 2011, dated 2014).

The target in the assay is human NaV subtype, like NaV 1.7 (Homo sapiens, UniProt Q15858). In words: E-VIPR optical membrane potential assay with electrical stimulation. Format: cell-based. The note with it: active against one or more sodium channels; Table 3 does not name the assay or NaV subtype; read-out: Binned Activity Data (IC50).

Molecules are shown by their SMILES. pIC50: −log10 of the molar value.

Sequence of human NaV subtype, like NaV 1.7 (Q15858 whole entry): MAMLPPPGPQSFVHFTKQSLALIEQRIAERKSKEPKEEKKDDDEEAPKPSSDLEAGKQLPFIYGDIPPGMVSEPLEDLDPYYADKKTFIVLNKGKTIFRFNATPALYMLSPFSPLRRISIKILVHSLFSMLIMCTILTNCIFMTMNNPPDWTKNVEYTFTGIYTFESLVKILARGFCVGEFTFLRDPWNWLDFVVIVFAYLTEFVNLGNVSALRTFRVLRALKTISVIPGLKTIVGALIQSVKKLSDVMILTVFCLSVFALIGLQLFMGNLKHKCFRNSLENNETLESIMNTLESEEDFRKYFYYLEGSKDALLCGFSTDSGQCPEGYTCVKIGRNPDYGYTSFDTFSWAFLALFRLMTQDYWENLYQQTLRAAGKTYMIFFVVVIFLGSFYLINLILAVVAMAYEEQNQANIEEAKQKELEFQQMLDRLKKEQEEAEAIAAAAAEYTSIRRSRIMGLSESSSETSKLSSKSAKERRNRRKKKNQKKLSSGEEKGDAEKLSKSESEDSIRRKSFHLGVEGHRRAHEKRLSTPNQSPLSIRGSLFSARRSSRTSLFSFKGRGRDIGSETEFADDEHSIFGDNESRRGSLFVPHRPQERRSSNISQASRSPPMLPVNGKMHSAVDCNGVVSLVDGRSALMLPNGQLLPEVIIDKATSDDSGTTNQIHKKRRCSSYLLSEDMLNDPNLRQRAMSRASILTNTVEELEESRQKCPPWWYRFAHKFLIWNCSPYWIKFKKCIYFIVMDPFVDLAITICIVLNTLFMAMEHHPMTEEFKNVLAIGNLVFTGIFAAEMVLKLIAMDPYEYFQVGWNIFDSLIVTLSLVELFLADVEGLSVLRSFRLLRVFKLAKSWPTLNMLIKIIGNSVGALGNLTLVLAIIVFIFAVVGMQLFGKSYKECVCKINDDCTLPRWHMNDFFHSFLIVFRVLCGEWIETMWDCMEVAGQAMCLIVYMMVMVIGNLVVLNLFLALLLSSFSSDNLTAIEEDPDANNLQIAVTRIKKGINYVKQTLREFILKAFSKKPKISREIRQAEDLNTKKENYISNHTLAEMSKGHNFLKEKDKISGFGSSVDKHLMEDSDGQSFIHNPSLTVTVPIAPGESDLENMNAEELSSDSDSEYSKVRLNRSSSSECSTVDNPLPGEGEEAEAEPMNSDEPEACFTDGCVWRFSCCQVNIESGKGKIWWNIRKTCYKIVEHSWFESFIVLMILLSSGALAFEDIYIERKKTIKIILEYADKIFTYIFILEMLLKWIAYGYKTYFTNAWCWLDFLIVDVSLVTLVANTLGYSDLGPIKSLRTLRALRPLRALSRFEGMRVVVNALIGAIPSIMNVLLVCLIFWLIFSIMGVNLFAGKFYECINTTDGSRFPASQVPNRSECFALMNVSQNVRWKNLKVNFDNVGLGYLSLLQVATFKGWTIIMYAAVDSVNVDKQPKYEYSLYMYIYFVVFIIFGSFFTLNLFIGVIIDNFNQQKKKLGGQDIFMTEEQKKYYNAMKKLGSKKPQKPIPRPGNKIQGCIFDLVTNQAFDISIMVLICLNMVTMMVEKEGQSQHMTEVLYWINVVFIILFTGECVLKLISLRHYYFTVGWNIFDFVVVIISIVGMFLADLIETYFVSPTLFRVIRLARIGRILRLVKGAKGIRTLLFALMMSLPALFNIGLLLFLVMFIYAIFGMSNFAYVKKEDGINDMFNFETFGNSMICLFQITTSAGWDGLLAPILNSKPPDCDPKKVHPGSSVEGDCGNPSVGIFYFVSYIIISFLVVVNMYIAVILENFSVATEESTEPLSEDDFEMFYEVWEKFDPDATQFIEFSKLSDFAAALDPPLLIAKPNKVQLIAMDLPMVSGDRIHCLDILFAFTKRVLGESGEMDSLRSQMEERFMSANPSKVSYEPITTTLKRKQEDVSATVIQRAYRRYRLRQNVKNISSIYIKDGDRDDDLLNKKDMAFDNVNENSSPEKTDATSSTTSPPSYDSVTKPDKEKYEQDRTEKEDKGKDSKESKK

In general, pIC50 refers to −log10 of the IC50, conventionally taken in molar units. On to `C[C@H]1Cn2c(C(=O)C(F)(F)F)ccc2C2(CCN(C(=O)c3ccc(C(C)(C)O)cc3)CC2)N1C` [Compound 349], for which the pIC50 is ≥ 5.70. `Cc1cc(C(=O)N2CC[C@]3(c4ccc(C(F)(F)F)n4CCN3C)[C@H](F)C2)ccc1C(C)(C)O` [Compound 350]: the pIC50 was ≥ 5.70. As for `COc1ccc(C(=O)N2CCC3(CC2)c2ccc(C(F)(F)F)n2CCN3C)cc1` [Compound 351], the pIC50 was < 5.30. In the case of `CN1CCn2c(Cl)ccc2C12CCN(C(=O)c1ccc(S(=O)(=O)NC3CC3)cc1)CC2` [Compound 352], the pIC50 was 5.30 to 5.70. To `COc1cc(C(=O)N2CCC3(CC2)NC(C)(C)Cn2c(C(C)=O)ccc23)ccc1C(C)(C)C` [Compound 353] belongs ≥ 5.70; to `CC(C)(O)c1ccc(C(=O)N2CCC3(CC2)c2ccc(C(F)(F)F)n2CCN3CC(F)F)cc1` [Compound 354], ≥ 5.70. Consider `Cc1cc(C(=O)N2CCC3(CC2)c2ccc(C(=O)C(F)(F)F)n2C(C)CN3C)ccc1OC(C)C` (stereo not shown) [Compound 355], for which the pIC50 is ≥ 5.70. As to `Cc1cc(C(=O)N2CCC3(CC2)NCCn2c(C(F)(F)F)ccc23)ccc1OC(C)C` [Compound 356], the pIC50 is ≥ 5.70.

In the case of `COc1nc(C(=O)N2CCC3(CC2)c2ccc(C(=O)C(F)(F)F)n2CCN3C)ccc1OC(C)C` [Compound 357], the pIC50 is ≥ 5.70.

With `CN1CCn2c(C(=O)C(F)(F)F)ccc2C12CCN(C(=O)c1ccc(C(C)(C)O)cc1)CC2` [Compound 358], the pIC50 is 5.30 to 5.70. For the molecule `CC(C)C(=O)c1ccc2n1CCN(C)C21CCN(C(=O)c2ccc(COCCC(F)(F)F)cc2)CC1` [Compound 359], the negative-log IC50 (pIC50) was ≥ 5.70. For `COc1cc(C(=O)N2CCC3(CC2)c2ccc(C(=O)C(F)(F)F)n2CCN3C)ccc1OCCOC(F)(F)F` [Compound 360], the pIC50 is ≥ 5.70. Take `CC(=O)c1ccc2n1C(C)(C)CN(C)C21CCN(C(=O)c2ccc(C3CCCCC3)cc2)CC1` [Compound 361]: the pIC50 is ≥ 5.70.

Regarding `COc1cc(C(=O)N2CCC3(CC2)c2ccc(C(F)(F)F)n2CCN3C=O)ccc1OC(C)C` [Compound 362], the pIC50 was < 5.30.

As to `CC(C)S(=O)(=O)c1ccc(C(=O)N2CCC3(CC2)c2c(F)cc(C(F)(F)F)n2CCN3C)cc1` [Compound 363], the pIC50 is ≥ 5.70. With `COc1cc(C(=O)N2CCC3(CC2)NC(C)(C)Cn2cc(C(C)=O)cc23)ccc1C(C)(C)C` [Compound 364], the pIC50 was < 5.30. As for `CN1CCn2c(C(F)(F)F)ccc2C12CCN(C(=O)c1cc3occc3n1C)CC2` [Compound 365], the pIC50 is ≥ 5.70.

As to `CC(C)(O)c1ccc(C(=O)N2CCC3(CC2)c2ccc(C(F)(F)F)n2CCN3CC(F)(F)F)cc1` [Compound 366], the pIC50 is ≥ 5.70. In the case of `CC(C)Oc1ccc(C(=O)N2CCC3(CC2)NCCn2c(C(F)(F)F)ccc23)c(F)c1` [Compound 367], the pIC50 was ≥ 5.70. `CN1CCn2c(C(=O)C3CC3)ccc2C12CCN(C(=O)c1ccc(C(C)(C)O)c(F)c1)CC2` [Compound 368]: the pIC50 was ≥ 5.70. Regarding `CN1CCn2c(C(=O)C(F)(F)F)ccc2C12CCN(C(=O)c1ccc(OCc3ccccc3)cc1)CC2` [Compound 369], the pIC50 was ≥ 5.70. As for `CN1CCn2c(C(F)(F)F)ccc2C12CCN(C(=O)c1ccc(C(C)(C)O)c(F)c1)CC2` [Compound 370], the pIC50 was ≥ 5.70. For `Cc1cc(C(F)F)n2ncc(C(=O)N3CCC4(CC3)c3ccc(C(F)(F)F)n3CCN4C)c2n1` [Compound 371], the pIC50 is ≥ 5.70. Take `COc1cc(C(=O)N2CCC3(CC2)NCCn2c(C(F)(F)F)ccc23)ccc1OC(C)C` [Compound 372]: the pIC50 is ≥ 5.70. Consider `COc1cc(C(=O)N2CCC3(CC2)c2ccc(C(C)=O)n2CCN3C)ccc1COCCC(F)(F)F` [Compound 373], for which the pIC50 is ≥ 5.70. As for `O=C(c1ccc(Oc2ccccc2)cc1)N1CCC2(CC1)NCCn1c(C(F)(F)F)ccc12` [Compound 374], the pIC50 was < 5.30.

As for `COc1cc(C(=O)N2CCC3(CC2)NC(C)(C)Cn2c(C(=O)C(F)(F)F)ccc23)ccc1OC(C)C` [Compound 375], the pIC50 is ≥ 5.70. `Cc1cc(C(=O)N2CCC3(CC2)c2ccc(C(=O)C(F)(F)F)n2CCN3C)ccc1F` [Compound 376]: the negative-log IC50 (pIC50) was 5.30 to 5.70.

For `COc1ccc(C(=O)N2CCC3(CC2)NC(C)(C)Cn2c(C(=O)C(F)(F)F)ccc23)cc1C(F)(F)F` [Compound 377], the pIC50 is ≥ 5.70. As for `Cc1cc(N2CCCC2)n2ncc(C(=O)N3CCC4(CC3)c3ccc(C(F)(F)F)n3CCN4C)c2n1` [Compound 378], the negative logarithm of the IC50 (pIC50) was ≥ 5.70. Regarding `COc1nc(C(=O)N2CCC3(CC2)c2c(Cl)cc(C(F)(F)F)n2CCN3C)ccc1OC(C)C` [Compound 379], the pIC50 was ≥ 5.70. Take `CNS(=O)(=O)c1ccc(C(=O)N2CCC3(CC2)c2ccc(C(F)(F)C(F)(F)F)n2CCN3C)cc1` [Compound 381]: the pIC50 is ≥ 5.70. Next, `CCc1ccc(C(=O)N2CCC3(CC2)c2ccc(C(C)=O)n2CCN3C)cc1OC` [Compound 382]: 5.30 to 5.70; `Cc1cc(C(=O)N2CCC3(CC2)c2ccc(C(=O)C(F)(F)F)n2CCN3C)ccc1-c1cnn(C)c1` [Compound 383]: 5.30 to 5.70. `Cc1cc(C(=O)N2CCC3(CC2)c2c(F)cc(C(F)(F)F)n2CCN3C)ccc1C1(O)CCC1` [Compound 384]: the pIC50 is ≥ 5.70. For the molecule `CC[C@H](C)Oc1ccc(C(=O)N2CCC3(CC2)c2ccc(C(F)(F)C(F)(F)F)n2CCN3C)cc1OC` [Compound 385], the pIC50 was ≥ 5.70. Take `CCCCOc1ccc(C(=O)N2CCC3(CC2)c2ccc(Cl)n2CCN3C)cc1` [Compound 386]: the pIC50 is ≥ 5.70. Turning to `CN1CCn2c(Cl)ccc2C12CCN(C(=O)c1ccc(C(C)(C)O)c(F)c1)CC2` [Compound 387], the negative logarithm of the IC50 (pIC50) was ≥ 5.70. On to `CC(=O)c1ccc2n1CCN(C)C21CCN(C(=O)c2ccc(OCC3CC3)cc2)CC1` [Compound 388], for which the pIC50 is < 5.30.

Take `CN1CCn2c(C(=O)C(F)(F)F)ccc2C12CCN(C(=O)c1ccc(C3CC3)cc1)CC2` [Compound 389]: the pIC50 is ≥ 5.70. Take `CC(C)Oc1ccc(C(=O)N2CCC3(CC2)c2c(F)cc(C(F)(F)F)n2CCN3C)cc1CO` [Compound 390]: the negative-log IC50 (pIC50) is ≥ 5.70. `CC(C)Oc1ccc(C(=O)N2CCC3(CC2)c2cc(C(=O)C(F)(F)F)cn2C(C)(C)CN3C)cc1F` [Compound 391]: the pIC50 is < 5.30.

As for `CN1CCn2c(C(F)(F)F)ccc2C12CCN(C(=O)c1cccnc1N1CCC(F)(F)C1)CC2` [Compound 392], the pIC50 is 5.30 to 5.70.

With `CN1CCn2c(C(F)(F)F)ccc2C12CCN(C(=O)c1ccccc1-c1ccccc1)CC2` [Compound 393], the pIC50 was < 5.30. As to `Cc1cc(C(=O)N2CCC3(CC2)c2ccc(C#N)n2CCN3C)ccc1OC(C)C` [Compound 394], the pIC50 was 5.30 to 5.70. As to `CC(C)C(O)c1ccc(C(=O)N2CCC3(CC2)c2c(F)cc(C(F)(F)F)n2CCN3C)cc1` (stereo not shown) [Compound 395], the pIC50 was ≥ 5.70. As to `CC1(C)Cn2c(C(=O)C(F)(F)F)ccc2C2(CCN(C(=O)c3ccc(S(=O)(=O)C(F)(F)F)cc3)CC2)N1` [Compound 396], the pIC50 is ≥ 5.70. `CCCOc1ccc(C(=O)N2CCC3(CC2)c2c(F)cc(C(F)(F)F)n2CCN3C)cc1OC` [Compound 397]: the pIC50 was ≥ 5.70.

`CC(=O)c1ccc2n1CCN(C)C21CCN(C(=O)c2ccc(OC(C)C)c(Cl)c2)CC1` [Compound 398]: the pIC50 was ≥ 5.70.

On to `Cc1cc(S(=O)(=O)C(C)C)ccc1C(=O)N1CCC2(CC1)c1ccc(C(=O)C(C)(C)C)n1CCN2C` [Compound 399], for which the pIC50 is 5.30 to 5.70. With `CN1CCn2c(Cl)ccc2C12CCN(C(=O)c1ccc(C3CC3)cc1)CC2` [Compound 400], the pIC50 is < 5.30. For `CN1CCn2c(C(F)(F)F)cc(Cl)c2C12CCN(C(=O)c1ccc(CC(C)(C)O)c(F)c1)CC2` [Compound 401], the pIC50 was ≥ 5.70.

With `CN1CCn2c(C(=O)C(F)(F)F)ccc2C12CCN(C(=O)c1ccc(Oc3ccccc3)cc1)CC2` [Compound 402], the pIC50 was 5.30 to 5.70. Next, `CN1CCn2c(C(F)(F)F)ccc2C12CCN(C(=O)c1ccc(Cl)cc1)CC2` [Compound 403]: < 5.30; `CC(C)Oc1ccc(C(=O)N2CCC3(CC2)NC(C)(C)Cn2c(C(=O)C(F)(F)F)ccc23)c(F)c1` [Compound 404]: ≥ 5.70. In the case of `COc1cc(C(=O)N2CCC3(CC2)NCC(C)(C)n2c(C(F)(F)F)ccc23)ccc1OC(C)C` [Compound 405], the pIC50 is ≥ 5.70. Take `CN1CCn2c(Cl)ccc2C12CCN(C(=O)c1ccc(Oc3ccccc3)cc1)CC2` [Compound 406]: the pIC50 was 5.30 to 5.70. As to `COc1cc(C(=O)N2CCC3(CC2)c2ccc(C(F)(F)F)n2CCN3C)ccc1O` [Compound 407], the pIC50 was 5.30 to 5.70. Take `CCC(C)(C)c1ccc(C(=O)N2CCC3(CC2)NC(C)(C)Cn2c(C(=O)C(F)(F)F)ccc23)cc1` [Compound 408]: the pIC50 is ≥ 5.70.

Turning to `CC(C)CCOc1ccc(C(=O)N2CCC3(CC2)NC(C)(C)Cn2c(C(=O)C(F)(F)F)ccc23)cc1` [Compound 409], the pIC50 was ≥ 5.70. Consider `COc1cc(C(=O)N2CCC3(CC2)c2c(F)cc(C(F)(F)F)n2CCN3C)ccc1C1(O)CCC1` [Compound 410], for which the negative-log IC50 (pIC50) is ≥ 5.70. Turning to `C[C@H]1Cn2c(C(=O)C(F)(F)F)ccc2C2(CCN(C(=O)c3ccc(C(C)(C)O)c(F)c3)CC2)N1C` [Compound 411], the pIC50 is ≥ 5.70.

With `CC[C@@H](C)Oc1ccc(C(=O)N2CCC3(CC2)c2ccc(C(F)(F)C(F)(F)F)n2CCN3C)cc1OC` [Compound 412], the pIC50 was ≥ 5.70. Regarding `COc1ccc(C(=O)N2CCC3(CC2)c2ccc(C(=O)C(C)C)n2CCN3C)cc1Cl` [Compound 413], the pIC50 was ≥ 5.70. As to `CN1CCn2c(Cl)ccc2C12CCN(C(=O)c1ccc(COc3ccccc3)cc1)CC2` [Compound 414], the pIC50 is 5.30 to 5.70. Regarding `CNS(=O)(=O)c1ccc(C(=O)N2CCC3(CC2)c2c(F)cc(C(F)(F)F)n2CCN3C)cc1` [Compound 415], the pIC50 is ≥ 5.70. As to `CCOc1ccc(C(=O)N2CCC3(CC2)c2ccc(C(C)=O)n2CCN3C)cc1OCC` [Compound 416], the pIC50 is < 5.30.
